Measurements: patent US5610160A, “Topical 5-fluorouracil prodrug composition and method” (priority 1994, dated 1997)
≈ marks a conversion by molar mass, not a printed value. Like-named read-outs stand apart in the source and are kept apart here.

Tests used:
[1] = Solubility of prodrug in isopropyl myristate (IPM); settings: isopropyl myristate, organic solvent or mixture
Description: The results from the determination of the physicochemical properties are recorded in the tables as CIPM (the saturated solubility of the prodrug in the isopropyl myristate (IPM) vehicle/formulation in which the prodrug was applied to the mouse skins), K (the partition coefficients of the prodrug between IPM and a pH 4.0 acetate buffer) and Cw (the solubility of the prodrug in pH 4.0 acetate buffer calculated from the partition coefficient and the IPM solubility).

[2] = Diffusion cell experiments: delivery of 5-FU through hairless mouse skin; assay type: in vitro ADME; settings: for Ji, flux of 5-FU through the skin: from suspensions of prodrugs in IPM, hairless mouse skin; for Cs, amount of 5-FU in the skin: leached from hairless mouse skin in 24 hours subsequent to application of prodrug in vehicle for 48 hours; for Jj, flux of theophylline through the skin after application of the prodrug/formulation (relative damage): theophylline from suspension in PG
Description: The diffusion cell experiments were conducted as described by Sloan et al in J. Invest.
^b Flux in mg/cm^2 hour of 5FU from suspensions of prodrugs in
^c Amount of 5FU in mg leached from hairless mouse skin in 24 hours
subsequent to application of prodrug in vehicle for 48 hours.
^d Flux in mg/cm^2 hour of theophylline from suspension in PG.

skin malignancies = settings: topical, cited from earlier work
[3] = cited from earlier work
[4] = 22° C.; Buur et al (1986); compound 11 from Buur et al (1987); cited from earlier work
not told = settings: 22 °C; cited from earlier work
[5] = Partition coefficient between IPM and pH 4.0 acetate buffer; assay type: physicochemical; settings: 23 ± 1° C.
Excerpt: ^a Partition coefficient between IPM and pH 4.0 acetate buffer at 23

[6] = 37° C., 0.05 M phosphate buffer pH 7.4; Buur et al (1986); compound 11 from Buur et al (1987); cited from earlier work
[7] = 37° C., 80% human plasma; Buur et al (1986); compound 11 from Buur et al (1987); cited from earlier work
[8] = shake-flask, brief shaking, IPM phase analyzed immediately; settings: 23 ± 1 °C

Structure (SMILES): O=c1[nH]cc(F)c(=O)[nH]1 [Compound 5-FU, 5-fluorouracil]
- solubility [1]: 6.4 µg/mL (≈ 0.0492 mM)
- Ji, flux of 5-FU through the skin [2]: 0.0311 mg/cm^2 hour
- Cs, amount of 5-FU in the skin [2]: 0.48 mg
- Jj, flux of theophylline through the skin after application of the prodrug/formulation (relative damage) [2]: 0.215 mg/cm^2 hour
- treating superficial lesions (skin malignancies; actinic keratoses and basal cell carcinomas): successful
- treating deeper lesions or actinic keratoses of the extremities (skin malignancies): ineffective
- log K, octanol/pH 4.0 acetate buffer ([3]; octanol/acetate buffer, pH 4): -0.83
- Cw, solubility at pH 4.0 acetate buffer [4]: 11.1 mg/ml

Structure (SMILES): CCCCCCOC(=O)n1cc(F)c(=O)[nH]c1=O [Compound 11]
- log partition octanol / pH 4.0 acetate buffer (not told): 2.04 log10 concentration ratio
- solubility [1]: 8700 µg/mL (≈ 33.7 mM)
- K, partition coefficient between IPM and pH 4.0 acetate buffer [5]: 31.1
- Ji, flux of 5-FU through the skin [2]: 0.195 mg/cm^2 hour
- Cs, amount of 5-FU in the skin [2]: 1.38 mg
- Jj, flux of theophylline through the skin after application of the prodrug/formulation (relative damage) [2]: 0.321 mg/cm^2 hour
- Half-life, Buffer [6]: 9.17 h
- Half-life, 80% Plasma [7]: 2.0 min
- log K, octanol/pH 4.0 acetate buffer ([3]; 22° C., J. Pharm. Sci. 75, 522, Buur et al (1986), compound 11 from Int. J. Pharm. 36, 41 (1987)): 2.04
- Cw, solubility at pH 4.0 acetate buffer [4]: 1.5 mg/ml
- log partition isopropyl myristate / pH 4.0 acetate buffer [8]: 31.1 concentration ratio
